Source: patent US10072026B2, “Crystalline form of 3-((1R,3s,5S)-3-((7-((5-methyl-1H-pyrazol-3-yl)amino)-1,6-naphthyridin-5-yl)amino)-8-azabicyclo[3.2.1]octan-8-yl)propanenitrile” (priority 2015, dated 2018)

Assays:
JAK1 = JAK1 (Homo sapiens (Human), UniProt P23458); test: LanthaScreen JAK biochemical assay (JAK1); details: for Ki: read-out: JAK 1 (pKi) (converted)
JAK2 = JAK2 (Homo sapiens (Human), UniProt O60674); test: LanthaScreen JAK biochemical assay (JAK2); details: for Ki: read-out: JAK 2 (pKi) (converted)
JAK3 = JAK3 (Homo sapiens (Human), UniProt P52333); test: LanthaScreen JAK biochemical assay (JAK3)
[1] = test system: IL-4 induced STAT6 phosphorylation in THP-1 human monocytic cells; test: Cellular JAK potency assay, THP-1
Tyk2 = Tyk2 (Homo sapiens (Human), UniProt P29597); test: LanthaScreen JAK biochemical assay (Tyk2); details: for Ki: read-out: Tyk 2 (pKi) (converted)
[2] = test system: IL-13 induced STAT6 phosphorylation in BEAS-2B human lung epithelial cells; test: AlphaScreen cellular JAK potency assay, BEAS-2B
[3] = IL-4 induced STAT6 phosphorylation, THP-1 cells
[4] = Homo sapiens, THP-1, read-out: THP-1 IL4 pIC50 (converted)
[5] = Homo sapiens, BEAS-2B, read-out: BEAS2B pIC50 (converted)
[6] = THP-1 cells, IL-4 induced STAT6 phosphorylation
[7] = BEAS-2B cells, IL-13 induced STAT6 phosphorylation

JAK1, sequence (P23458 whole entry): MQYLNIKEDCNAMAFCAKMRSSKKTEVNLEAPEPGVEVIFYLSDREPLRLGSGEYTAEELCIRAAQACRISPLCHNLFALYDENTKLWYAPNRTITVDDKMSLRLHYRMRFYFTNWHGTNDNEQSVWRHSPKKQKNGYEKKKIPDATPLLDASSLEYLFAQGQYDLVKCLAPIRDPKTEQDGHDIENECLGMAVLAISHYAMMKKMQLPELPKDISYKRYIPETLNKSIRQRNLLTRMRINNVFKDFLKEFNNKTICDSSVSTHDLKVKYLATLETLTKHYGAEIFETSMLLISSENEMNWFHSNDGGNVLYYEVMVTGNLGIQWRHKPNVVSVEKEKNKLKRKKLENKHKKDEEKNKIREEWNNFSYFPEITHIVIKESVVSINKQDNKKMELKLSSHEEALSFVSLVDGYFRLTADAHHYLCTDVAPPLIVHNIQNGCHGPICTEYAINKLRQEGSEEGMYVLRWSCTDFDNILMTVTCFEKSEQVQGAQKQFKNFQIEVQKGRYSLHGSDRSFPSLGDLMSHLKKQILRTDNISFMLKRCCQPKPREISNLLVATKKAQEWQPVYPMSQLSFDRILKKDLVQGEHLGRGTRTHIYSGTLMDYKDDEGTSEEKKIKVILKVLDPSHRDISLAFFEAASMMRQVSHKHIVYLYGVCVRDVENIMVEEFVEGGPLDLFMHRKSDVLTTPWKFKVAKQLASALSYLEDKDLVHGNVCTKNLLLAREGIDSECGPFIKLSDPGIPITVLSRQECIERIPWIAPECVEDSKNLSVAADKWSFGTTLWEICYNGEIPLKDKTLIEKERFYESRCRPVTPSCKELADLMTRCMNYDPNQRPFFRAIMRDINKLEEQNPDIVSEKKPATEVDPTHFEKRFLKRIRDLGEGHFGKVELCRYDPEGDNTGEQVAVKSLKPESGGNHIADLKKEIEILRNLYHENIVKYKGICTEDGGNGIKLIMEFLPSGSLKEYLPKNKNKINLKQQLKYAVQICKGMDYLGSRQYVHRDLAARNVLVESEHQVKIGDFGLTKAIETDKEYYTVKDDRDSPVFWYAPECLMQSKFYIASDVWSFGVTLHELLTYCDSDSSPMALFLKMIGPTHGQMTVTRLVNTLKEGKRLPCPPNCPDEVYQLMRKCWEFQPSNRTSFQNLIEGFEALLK
Tyk2, sequence (P29597 whole entry): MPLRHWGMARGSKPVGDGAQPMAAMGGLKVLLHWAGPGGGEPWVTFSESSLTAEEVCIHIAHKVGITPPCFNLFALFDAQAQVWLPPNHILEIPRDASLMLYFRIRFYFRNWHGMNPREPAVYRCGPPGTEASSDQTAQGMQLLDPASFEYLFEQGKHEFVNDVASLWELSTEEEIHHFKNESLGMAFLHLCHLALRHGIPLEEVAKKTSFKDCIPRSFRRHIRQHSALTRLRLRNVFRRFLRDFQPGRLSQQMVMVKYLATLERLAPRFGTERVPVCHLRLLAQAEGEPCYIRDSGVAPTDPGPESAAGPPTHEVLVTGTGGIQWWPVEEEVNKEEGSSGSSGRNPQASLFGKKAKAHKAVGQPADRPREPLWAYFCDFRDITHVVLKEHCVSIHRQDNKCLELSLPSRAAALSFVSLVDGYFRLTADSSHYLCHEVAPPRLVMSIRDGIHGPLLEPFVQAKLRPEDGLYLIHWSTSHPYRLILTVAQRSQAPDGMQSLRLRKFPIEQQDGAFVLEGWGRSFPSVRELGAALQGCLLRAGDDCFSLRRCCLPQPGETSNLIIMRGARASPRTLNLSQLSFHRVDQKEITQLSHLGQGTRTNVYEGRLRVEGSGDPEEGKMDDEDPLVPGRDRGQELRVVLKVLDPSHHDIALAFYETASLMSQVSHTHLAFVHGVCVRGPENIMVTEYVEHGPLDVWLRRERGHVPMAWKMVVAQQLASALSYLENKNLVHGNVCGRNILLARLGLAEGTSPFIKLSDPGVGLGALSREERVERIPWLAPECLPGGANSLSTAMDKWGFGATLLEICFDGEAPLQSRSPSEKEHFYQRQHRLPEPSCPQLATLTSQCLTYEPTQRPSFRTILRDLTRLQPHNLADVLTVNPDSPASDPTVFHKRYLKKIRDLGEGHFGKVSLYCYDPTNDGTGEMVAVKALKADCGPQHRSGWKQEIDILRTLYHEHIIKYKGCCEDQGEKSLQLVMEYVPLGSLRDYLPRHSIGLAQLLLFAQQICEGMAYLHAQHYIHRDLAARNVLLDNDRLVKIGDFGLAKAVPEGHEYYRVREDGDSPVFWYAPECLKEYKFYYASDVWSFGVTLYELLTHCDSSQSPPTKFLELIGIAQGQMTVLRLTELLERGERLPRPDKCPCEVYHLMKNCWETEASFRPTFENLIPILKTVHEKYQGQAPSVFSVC
JAK2, sequence (O60674 whole entry): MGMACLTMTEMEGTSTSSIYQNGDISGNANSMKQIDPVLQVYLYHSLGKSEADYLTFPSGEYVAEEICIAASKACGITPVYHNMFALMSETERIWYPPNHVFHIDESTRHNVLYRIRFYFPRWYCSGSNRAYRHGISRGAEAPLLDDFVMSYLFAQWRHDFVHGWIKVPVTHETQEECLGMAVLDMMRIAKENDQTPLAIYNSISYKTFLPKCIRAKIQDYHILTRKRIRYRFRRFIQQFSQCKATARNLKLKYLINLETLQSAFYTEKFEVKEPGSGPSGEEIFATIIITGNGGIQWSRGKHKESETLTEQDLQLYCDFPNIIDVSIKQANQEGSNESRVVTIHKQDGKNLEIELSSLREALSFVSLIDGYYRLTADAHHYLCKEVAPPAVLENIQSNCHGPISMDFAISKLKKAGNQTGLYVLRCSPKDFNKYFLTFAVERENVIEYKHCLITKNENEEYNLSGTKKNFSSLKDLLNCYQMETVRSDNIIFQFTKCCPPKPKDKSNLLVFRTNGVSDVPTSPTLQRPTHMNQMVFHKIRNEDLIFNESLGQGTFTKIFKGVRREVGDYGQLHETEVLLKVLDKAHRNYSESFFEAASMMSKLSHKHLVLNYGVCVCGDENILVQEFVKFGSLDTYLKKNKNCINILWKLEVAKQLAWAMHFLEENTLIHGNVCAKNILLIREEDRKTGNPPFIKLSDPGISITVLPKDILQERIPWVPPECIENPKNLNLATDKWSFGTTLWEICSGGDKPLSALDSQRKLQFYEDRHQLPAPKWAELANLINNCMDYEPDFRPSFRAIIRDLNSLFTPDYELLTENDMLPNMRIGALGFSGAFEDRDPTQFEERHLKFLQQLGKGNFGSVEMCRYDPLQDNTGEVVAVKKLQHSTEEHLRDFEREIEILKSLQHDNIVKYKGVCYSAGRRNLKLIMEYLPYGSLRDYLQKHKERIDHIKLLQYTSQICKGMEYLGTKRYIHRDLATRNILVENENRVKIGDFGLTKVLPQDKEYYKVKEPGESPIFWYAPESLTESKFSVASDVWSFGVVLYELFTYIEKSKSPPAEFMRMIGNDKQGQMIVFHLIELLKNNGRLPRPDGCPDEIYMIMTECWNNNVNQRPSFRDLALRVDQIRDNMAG

SMILES | JAK 1 (pKi) (JAK1) | JAK 2 (pKi) (JAK2) | JAK 3 (pKi) (JAK3) | THP-1 IL4 pIC50 [1, 3] | THP-1 IL4 pIC50 [1, 6] | also measured
Cc1cc(Nc2cc3ncccc3c(N[C@@H]3C[C@H]4CC[C@@H](C3)N4CC(N)=O)n2)n[nH]1 [Example 1-6] | B (B represents a pKi value between 9 and 10 (Ki between 1 nM and 0.1 nM)) | B (B represents a pKi value between 9 and 10 (Ki between 1 nM and 0.1 nM)) | C (C represents a pKi value between 7 and 9 (Ki between 100 nM and 1 nM)) | C (C represents a pEC50 value<6.7 (EC50>200 nM)) |  | 
Cc1cc(Nc2cc3ncccc3c(N[C@@H]3C[C@H]4CC[C@@H](C3)N4CC(=O)N(C)C)n2)n[nH]1 [Example 1-8] | B (B represents a pKi value between 9 and 10 (Ki between 1 nM and 0.1 nM)) |  | C (C represents a pKi value between 7 and 9 (Ki between 100 nM and 1 nM)) | C (C represents a pEC50 value<6.7 (EC50>200 nM)) |  | 
COC(=O)CCN1[C@@H]2CCC[C@H]1C[C@H](Nc1nc(Nc3cc(C)[nH]n3)cc3ncccc13)C2 [Example 1-33] | B (B represents a pKi value between 9 and 10 (Ki between 1 nM and 0.1 nM)) | B (B represents a pKi value between 9 and 10 (Ki between 1 nM and 0.1 nM)) | C (C represents a pKi value between 7 and 9 (Ki between 100 nM and 1 nM)) | C (C represents a pEC50 value<6.7 (EC50>200 nM)) |  | 
Cc1cc(Nc2cc3ncccc3c(N[C@@H]3C[C@H]4CCC[C@@H](C3)N4CC(=O)N[C@@H]3CCOC3=O)n2)n[nH]1 [Example 1-41] |  | A (A represents a pKi value≥10 (Ki≤0.1 nM)) | B (B represents a pKi value between 9 and 10 (Ki between 1 nM and 0.1 nM)) | C (C represents a pEC50 value<6.7 (EC50>200 nM)) |  | 
Cc1cc(Nc2cc3ncccc3c(N[C@@H]3C[C@H]4CCC[C@@H](C3)N4CC(=O)N[C@H]3CCOC3=O)n2)n[nH]1 [Example 1-42] |  | A (A represents a pKi value≥10 (Ki≤0.1 nM)) | B (B represents a pKi value between 9 and 10 (Ki between 1 nM and 0.1 nM)) | C (C represents a pEC50 value<6.7 (EC50>200 nM)) |  | 
Cc1cc(Nc2cc3ncccc3c(N[C@@H]3C[C@H]4CCC[C@@H](C3)N4Cc3ccc(O)cc3)n2)n[nH]1 [Example 1-50] | A (A represents a pKi value≥10 (Ki≤0.1 nM)) | A (A represents a pKi value≥10 (Ki≤0.1 nM)) | C (C represents a pKi value between 7 and 9 (Ki between 100 nM and 1 nM)) | B (B represents a pEC50 value between 6.7 and 7.5 (EC50 between 200 nM and 32 nM)) |  | 
Cc1cc(Nc2cc3ncccc3c(N[C@@H]3C[C@H]4CC[C@@H](C3)N4C(=O)CN(C)C)n2)n[nH]1 [Example 2-5] | B (B represents a pKi value between 9 and 10 (Ki between 1 nM and 0.1 nM)) |  | C (C represents a pKi value between 7 and 9 (Ki between 100 nM and 1 nM)) | C (C represents a pEC50 value<6.7 (EC50>200 nM)) |  | 
Cc1cc(Nc2cc3ncccc3c(N[C@@H]3C[C@H]4CCC[C@@H](C3)N4S(=O)(=O)C3CNC3)n2)n[nH]1 [Example 4-21] |  | B (B represents a pKi value between 9 and 10 (Ki between 1 nM and 0.1 nM)) | C (C represents a pKi value between 7 and 9 (Ki between 100 nM and 1 nM)) | C (C represents a pEC50 value<6.7 (EC50>200 nM)) |  | 
COc1ccc2c(N[C@@H]3C[C@H]4CC[C@@H](C3)N4CCF)nc(Nc3cc(C)[nH]n3)cc2n1 [Example 5-3] | B (B represents a pKi value between 9 and 10 (Ki between 1 nM and 0.1 nM)) |  | C (C represents a pKi value between 7 and 9 (Ki between 100 nM and 1 nM)) | B (B represents a pEC50 value between 6.7 and 7.5 (EC50 between 200 nM and 32 nM)) |  | 
COc1ccc2c(N[C@@H]3C[C@H]4CC[C@@H](C3)N4CCC#N)nc(Nc3cc(C)[nH]n3)cc2n1 [Example 5-8] | B (B represents a pKi value between 9 and 10 (Ki between 1 nM and 0.1 nM)) | B (B represents a pKi value between 9 and 10 (Ki between 1 nM and 0.1 nM)) |  | A (A represents a pEC50 value≥7.5 (EC50≤32 nM)) |  | Tyk 2 (pKi) (Tyk2): B (B represents a pKi value between 9 and 10 (Ki between 1 nM and 0.1 nM)); BEAS2B pIC50 ([2]; IL-13 induced STAT6 phosphorylation, BEAS-2B cells): A (A represents a pEC50 value≥7.5 (EC50≤32 nM))
COc1ccc2c(N[C@@H]3C[C@H]4CC[C@@H](C3)N4S(C)(=O)=O)nc(Nc3cc(C)[nH]n3)cc2n1 [Example 5-9] |  |  |  |  |  | Ki (JAK1): 0.1 to 1 nM; Ki (JAK2): 0.1 to 1 nM; Ki (Tyk2): 0.1 to 1 nM; IC50 [1, 4]: < 31.6 nM; IC50 [2, 5]: < 31.6 nM
Cc1cc(Nc2cc3nc(CN4CCOCC4)ccc3c(N[C@@H]3C[C@H]4CC[C@@H](C3)N4S(=O)(=O)c3cncc(F)c3)n2)n[nH]1 [Example 5-20] |  |  |  |  |  | Ki (JAK1): 0.1 to 1 nM; Ki (JAK2): 0.1 to 1 nM; Ki (Tyk2): 0.1 to 1 nM; IC50 [1, 4]: < 31.6 nM; IC50 [2, 5]: 31.6 to 200 nM
CCS(=O)(=O)N1[C@@H]2CCC[C@H]1C[C@H](Nc1nc(Nc3cc(C)[nH]n3)cc3nc(CN4CCOCC4)ccc13)C2 [Example 5-23] | A (A represents a pKi value≥10 (Ki≤0.1 nM)) | A (A represents a pKi value≥10 (Ki≤0.1 nM)) | B (B represents a pKi value between 9 and 10 (Ki between 1 nM and 0.1 nM)) | A (A represents a pEC50 value≥7.5 (EC50≤32 nM)) |  | 
Cc1cc(Nc2cc3nc(CN4CCN(C)CC4)ccc3c(N[C@@H]3C[C@H]4CC[C@@H](C3)N4CCC#N)n2)n[nH]1 [Example 5-37] |  |  | B (B represents a pKi value between 9 and 10 (Ki between 1 nM and 0.1 nM)) | B (B represents a pEC50 value between 6.7 and 7.5 (EC50 between 200 nM and 32 nM)) |  | 
Cc1cc(Nc2cc3nc(CN4CCN(C)CC4)ccc3c(N[C@@H]3C[C@H]4CC[C@@H](C3)N4CC(C)C)n2)n[nH]1 [Example 5-38] |  |  | C (C represents a pKi value between 7 and 9 (Ki between 100 nM and 1 nM)) |  |  | 
COc1cnc2cc(Nc3cc(C)[nH]n3)nc(N[C@@H]3C[C@H]4CC[C@@H](C3)N4CCF)c2c1 [Example 6-13] | B (B represents a pKi value between 9 and 10 (Ki between 1 nM and 0.1 nM)) |  | C (C represents a pKi value between 7 and 9 (Ki between 100 nM and 1 nM)) |  | B (B represents a pEC50 value between 6.7 and 7.5 (EC50 between 200 nM and 32 nM)) | 
C=CCOC(=O)N1[C@@H]2CC[C@H]1C[C@H](Nc1nc(Nc3cc(C)[nH]n3)cc3ncc(OC)cc13)C2 [Example 6-19] | B (B represents a pKi value between 9 and 10 (Ki between 1 nM and 0.1 nM)) |  | C (C represents a pKi value between 7 and 9 (Ki between 100 nM and 1 nM)) |  | B (B represents a pEC50 value between 6.7 and 7.5 (EC50 between 200 nM and 32 nM)) | 
COc1cnc2cc(Nc3cc(C)[nH]n3)nc(N[C@@H]3C[C@H]4CCC[C@@H](C3)N4S(C)(=O)=O)c2c1 [Example 6-29] | B (B represents a pKi value between 9 and 10 (Ki between 1 nM and 0.1 nM)) | B (B represents a pKi value between 9 and 10 (Ki between 1 nM and 0.1 nM)) |  |  | A (A represents a pEC50 value≥7.5 (EC50≤32 nM)) | Tyk 2 (pKi) (Tyk2): B (B represents a pKi value between 9 and 10 (Ki between 1 nM and 0.1 nM)); BEAS2B pIC50 [2, 7]: A (A represents a pEC50 value≥7.5 (EC50≤32 nM))
COc1cnc2cc(Nc3cc(C)[nH]n3)nc(N[C@@H]3C[C@H]4CCC[C@@H](C3)N4CCC#N)c2c1 [Example 6-31] | B (B represents a pKi value between 9 and 10 (Ki between 1 nM and 0.1 nM)) | B (B represents a pKi value between 9 and 10 (Ki between 1 nM and 0.1 nM)) |  |  | A (A represents a pEC50 value≥7.5 (EC50≤32 nM)) | Tyk 2 (pKi) (Tyk2): B (B represents a pKi value between 9 and 10 (Ki between 1 nM and 0.1 nM)); BEAS2B pIC50 [2, 7]: A (A represents a pEC50 value≥7.5 (EC50≤32 nM))
CNC(=O)CN1[C@@H]2CC[C@H]1C[C@H](Nc1nc(Nc3cc(C)[nH]n3)cc3ncc(C(=O)OC)cc13)C2 [Example 6-42] | B (B represents a pKi value between 9 and 10 (Ki between 1 nM and 0.1 nM)) | B (B represents a pKi value between 9 and 10 (Ki between 1 nM and 0.1 nM)) | C (C represents a pKi value between 7 and 9 (Ki between 100 nM and 1 nM)) |  | C (C represents a pEC50 value<6.7 (EC50>200 nM)) | 
Cc1cc(Nc2cc3ncc(S(C)(=O)=O)cc3c(N[C@@H]3C[C@H]4CC[C@@H](C3)N4CCC(F)(F)F)n2)n[nH]1 [Example 6-56] | B (B represents a pKi value between 9 and 10 (Ki between 1 nM and 0.1 nM)) | A (A represents a pKi value≥10 (Ki≤0.1 nM)) |  |  | B (B represents a pEC50 value between 6.7 and 7.5 (EC50 between 200 nM and 32 nM)) | Tyk 2 (pKi) (Tyk2): B (B represents a pKi value between 9 and 10 (Ki between 1 nM and 0.1 nM)); BEAS2B pIC50 [2, 7]: B (B represents a pEC50 value between 6.7 and 7.5 (EC50 between 200 nM and 32 nM))
Cc1cc(Nc2nc(N[C@@H]3C[C@H]4CC[C@@H](C3)N4C(=O)CN(C)C)c3cccnc3c2F)n[nH]1 [Example 8-7] |  |  | C (C represents a pKi value between 7 and 9 (Ki between 100 nM and 1 nM)) |  | C (C represents a pEC50 value<6.7 (EC50>200 nM)) | 
Cc1cnc2c(F)c(Nc3cc(C)[nH]n3)nc(N[C@@H]3C[C@H]4CCC[C@@H](C3)N4S(=O)(=O)N3CC(C#N)C3)c2c1 [Example 8-23] | B (B represents a pKi value between 9 and 10 (Ki between 1 nM and 0.1 nM)) | A (A represents a pKi value≥10 (Ki≤0.1 nM)) |  |  | B (B represents a pEC50 value between 6.7 and 7.5 (EC50 between 200 nM and 32 nM)) | Tyk 2 (pKi) (Tyk2): B (B represents a pKi value between 9 and 10 (Ki between 1 nM and 0.1 nM)); BEAS2B pIC50 [2, 7]: B (B represents a pEC50 value between 6.7 and 7.5 (EC50 between 200 nM and 32 nM))
